Measurements reported in publication PMC4683377, “BODIPY-Based Fluorescent Probes for Sensing Protein Surface-Hydrophobicity” (Scientific Reports, 2015).

Assays:
[1] = molecular target: T1, apomyoglobin (ApoMb) (Equus caballus, UniProt P68082); assay: fluorescence titration ([…] dye, protein varied); assay type: binding
T1 construct: gene MB; apo form (heme removed) prepared from equine myoglobin

[2] = molecular target: T2, bovine serum albumin (BSA) (Bos taurus, UniProt P02769); assay: fluorescence titration ([…] dye, protein varied); assay type: binding
T2 construct: gene ALB
T2 sequence (P02769 25-607): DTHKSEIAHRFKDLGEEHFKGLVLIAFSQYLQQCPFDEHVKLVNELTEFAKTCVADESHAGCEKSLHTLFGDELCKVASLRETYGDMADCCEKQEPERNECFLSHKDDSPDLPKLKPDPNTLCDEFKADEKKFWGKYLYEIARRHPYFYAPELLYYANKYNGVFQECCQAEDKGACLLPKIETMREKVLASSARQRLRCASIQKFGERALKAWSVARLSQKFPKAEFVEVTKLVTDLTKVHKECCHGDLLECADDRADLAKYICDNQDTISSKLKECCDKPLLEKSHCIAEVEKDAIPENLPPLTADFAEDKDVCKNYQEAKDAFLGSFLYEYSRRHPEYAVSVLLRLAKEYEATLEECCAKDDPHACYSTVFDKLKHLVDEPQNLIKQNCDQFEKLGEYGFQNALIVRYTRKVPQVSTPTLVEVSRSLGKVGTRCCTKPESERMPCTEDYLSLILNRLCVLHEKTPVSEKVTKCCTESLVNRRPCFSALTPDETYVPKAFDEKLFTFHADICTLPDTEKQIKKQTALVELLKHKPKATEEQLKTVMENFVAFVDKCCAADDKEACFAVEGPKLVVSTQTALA

T1 sequence (P68082 2-154): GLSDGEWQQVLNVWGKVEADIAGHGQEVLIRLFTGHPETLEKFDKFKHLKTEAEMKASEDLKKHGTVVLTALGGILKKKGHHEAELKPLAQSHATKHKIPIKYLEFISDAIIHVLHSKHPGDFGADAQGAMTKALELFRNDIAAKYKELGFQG

Kd [1]: 0.33 µM
Kd [2]: 0.034 µM
Compound: COCCNC1=[N+]2C(=C(c3ccc(OC)cc3)c3ccc(NCCOC)n3[B-]2(F)F)C=C1 [compound 2, HPsensor 2]
